Test results taken from patent publication US10058570B2 (priority 2007, dated 2018).
Values joined by “and” are separate entries in the source; they are usually repeats but may differ in a detail not shown here. Equal entries are not always repeated. Where two headings read alike, the source gives them in different places. Marks after values point to notes of the source that are not given here.

Assays:
[1] = tested on: lipopolysaccharide-induced septic shock; type: in vivo, mouse
[2] = tested on: developing type II collagen arthritis
[3] = tested on: formalin-induced hind paw licking; type: in vivo, mouse; settings: for Hind paw licking time (Seconds) (Mean ± SEM): IP, mean (X)
[4] = tested on: acetic acid-induced writhing responses; settings: mouse, in vivo
[5] = tested on: LPS-induced neutrophilia in lung tissues; settings: mouse, in vivo
[6] = tested on: MRMT-1 tumor-induced bone osteolysis; settings: rat, in vivo
[7] = tested on: reaction of host lymphocytes to alloantigen; settings: mouse, in vivo, 10 mg/kg
[8] = sodium meta arsenite study, oral QD, 0.075 mg/kg
[9] = arsenic trioxide study, IP 10 mg/kg
[10] = arsenic trioxide study, IP, QD, 10 mg/kg

CC(=O)OCC(=O)[C@@]1(O)[C@H](C)C[C@H]2[C@@H]3CCC4=CC(=O)C=C[C@]4(C)[C@@]3(F)[C@@H](O)C[C@@]21C [Dexamehasone 21-acetate, reference compound]
% Protection ([1]; PO 3 mg/kg, mortality over 3 days after LPS 30 mg/kg IP): (75) %

CN(Cc1cnc2nc(N)nc(N)c2n1)c1ccc(C(=O)N[C@@H](CCC(=O)O)C(=O)O)cc1 [MTX, methotrexate, reference compound]
Relative spleen weights, reduction as compared to disease control rats ([2]; rat, in vivo, po, 0.075 mg/kg): 10%
inhibition of ankle diameter ([2]; sodium meta arsenite study, oral 0.075 mg/kg, days 10-17): Significant inhibition
inhibition of body weight loss (due to arthritis) ([2]; sodium meta arsenite study, oral QD days 0-16, 0.075 mg/kg): 96%
Inhibition of ankle diameter (AUC) [2, 8]: 97%
Inhibition of final paw weight [2, 8]: 95%
inhibition of ankle histopathology parameters [2, 8]: 97%
inhibition of knee histopathologic parameters [2, 8]: 100%
Inhibition of body weight loss from day zero (adjuvant arthritis; PO 0.1 mg/kg): 91%
Relative liver weights, reduction toward normal (adjuvant arthritis; PO 0.1 mg/kg): 100%
inhibition of ankle diameter AUC increase (adjuvant arthritis; PO 0.1 mg/kg): 96%
inhibition of ankle measurements (dorsal to ventral) (adjuvant arthritis; PO 0.1 mg/kg): 97%
inhibition of final paw weight increase due to arthritis (adjuvant arthritis; PO 0.1 mg/kg): 99%
inhibition of histopathologic bone resorption (adjuvant arthritis; PO 0.1 mg/kg): 100%
inhibition of histopathologic inflammation (adjuvant arthritis; PO 0.1 mg/kg): 99%
inhibition of lymphoid atrophy (adjuvant arthritis; PO 0.1 mg/kg): 50%
inhibition of splenic inflammation (adjuvant arthritis; PO 0.1 mg/kg): 100%
inhibition of ankle diameter increase (adjuvant arthritis; PO 0.1 mg/kg, significant days 8-14): Significant inhibition
Mean body weight decrease over time (due to arthritis) (adjuvant arthritis; PO 0.1 mg/kg, significant days 10-14): inhibited
Relative spleen weights, reduction toward normal (adjuvant arthritis; PO 0.01): 77%

CN1CC[C@]23c4c5ccc(O)c4O[C@H]2[C@@H](O)C=C[C@H]3[C@H]1C5 [Morphine, morphine, reference compound]
analgesic effect ([3]; mouse, in vivo): associated with analgesic effect
analgesic effect ([3]; mouse, in vivo, po, 30 mg/kg): significant analgesic effect

O=[As][O-].[Na+] [sodium meta arsenite, sodium meta arsenite (NaAsO2)]
inhibition of body weight loss (due to arthritis) ([2]; rat, in vivo): 100%
Relative thymus weights, reduction as compared to disease controls ([2]; rat, in vivo, 1 mg/kg): 20%
Calculated ED50 value, ankle diameter (AUC) ([2]; rat, in vivo, po): 8.499 mg/kg
Calculated ED50 value, ankle histopathology ([2]; rat, in vivo, po): 7.080 mg/kg
Calculated ED50 value, body weight loss ([2]; rat, in vivo, po): 1.929 mg/kg
Calculated ED50 value, final paw weight ([2]; rat, in vivo, po): 7.116 mg/kg
Calculated ED50 value, knee histopathology ([2]; rat, in vivo, po): 7.924 mg/kg
Inhibition of ankle diameter (AUC) ([2]; rat, in vivo, po, 10 mg/kg): 73%
Inhibition of ankle diameter AUC ([2]; rat, in vivo, po, 10 mg/kg): 66%
Inhibition of final paw weight ([2]; rat, in vivo, po, 10 mg/kg): 83% and 69%
Relative liver weights, increase above arthritic controls ([2]; rat, in vivo, po, 10 mg/kg): 14%
Relative liver weights, increase over disease controls ([2]; rat, in vivo, po, 10 mg/kg): 17%
Relative spleen weights, reduction as compared to disease control rats ([2]; rat, in vivo, po, 10 mg/kg): 10%
inhibition of ankle diameter ([2]; rat, in vivo, po, 10 mg/kg): Significant inhibition
inhibition of ankle histopathology parameters ([2]; rat, in vivo, po, 10 mg/kg): 85%
inhibition of body weight loss ([2]; rat, in vivo, po, 10 mg/kg): 85%
inhibition of decrease in ankle diameter ([2]; rat, in vivo, po, 10 mg/kg): Significant inhibition
inhibition of knee histopathologic parameters ([2]; rat, in vivo, po, 10 mg/kg): 87%
analgesic effect [4]: no analgesic effect
analgesic activity ([4]; po, 10 mg/kg): significant analgesic activity
number of writhing responses (average) ([4]; po, 10 mg/kg): 7 writhing events
IL-1β secretion ([1]; mouse, in vivo): significant inhibition
IL-6 secretion ([1]; mouse, in vivo): inhibition
protection against LPS-induced septic shock ([1]; mouse, in vivo): moderate protection
secretion of KC ([1]; mouse, in vivo, po): no effect
secretion of MCP-1 ([1]; mouse, in vivo, po): no effect
secretion of TNF-α ([1]; mouse, in vivo, po): no effect
KC in lavage fluid [5]: significant reduction
TNF-α in lavage fluid [5]: significant suppression
cell counts in lavage fluid [5]: not associated with any significant changes
monocyte count in lavage fluid [5]: significant decrease
neutrophil (differential) count in lavage fluid [5]: significant decrease
secretion of 1L-1β, Il-6 or MCP-1 observed in brachoaveolar lavage fluid [5]: At no concentration
white blood cell (total) count in lavage fluid [5]: significant decrease
Inhibition of body weight loss from day 0 (adjuvant arthritis; rat, in vivo): 2-14%
Relative liver weights, reduction (adjuvant arthritis; rat, in vivo): 7-29%
tolerability (adjuvant arthritis; rat, in vivo): well tolerated
Calculated ED50, ankle diameter AUC (adjuvant arthritis; rat, in vivo, po): 10.62 mg/kg
Calculated ED50, ankle measurements (dorsal to ventral) (adjuvant arthritis; rat, in vivo, po): 13.65 mg/kg
Calculated ED50, final paw weight (adjuvant arthritis; rat, in vivo, po): 1421 mg/kg
Calculated ED50, histopathologic bone resorption (adjuvant arthritis; rat, in vivo, po): 9.243 mg/kg
Calculated ED50, histopathologic inflammation (adjuvant arthritis; rat, in vivo, po): 17.25 mg/kg
inhibition of histopathologic inflammation (adjuvant arthritis; rat, in vivo, po): 76%
inhibition of lymphoid atrophy (adjuvant arthritis; rat, in vivo, po): 29%
inhibition of splenic inflammation (adjuvant arthritis; rat, in vivo, po): 32%
inhibition of ankle diameter increase (adjuvant arthritis; rat, in vivo, po, 3 mg/kg): Significant inhibition
Relative spleen weights, reduction toward normal (adjuvant arthritis; rat, in vivo, po, 10 mg/kg): 50%
inhibition of ankle diameter AUC increase (adjuvant arthritis; rat, in vivo, po, 10 mg/kg): 46%
inhibition of ankle diameter increase (adjuvant arthritis; rat, in vivo, po, 10 mg/kg): Significant inhibition
inhibition of ankle measurements (dorsal to ventral) (adjuvant arthritis; rat, in vivo, po, 10 mg/kg): 36%
inhibition of final paw weight increase due to arthritis (adjuvant arthritis; rat, in vivo, po, 10 mg/kg): 28%
inhibition of histopathologic bone resorption (adjuvant arthritis; rat, in vivo, po, 10 mg/kg): 59%
inhibition of histopathologic inflammation (adjuvant arthritis; rat, in vivo, po, 10 mg/kg): 24%
Mean body weight loss over time (adjuvant arthritis; rat, in vivo, po, 30 mg/kg): significantly increased
Relative spleen weights, reduction toward normal (adjuvant arthritis; rat, in vivo, po, 30 mg/kg): 91%
inhibition of ankle diameter AUC increase (adjuvant arthritis; rat, in vivo, po, 30 mg/kg): 83%
inhibition of ankle diameter increase (adjuvant arthritis; rat, in vivo, po, 30 mg/kg): Significant inhibition
inhibition of ankle measurements (dorsal to ventral) (adjuvant arthritis; rat, in vivo, po, 30 mg/kg): 81%
inhibition of final paw weight increase due to arthritis (adjuvant arthritis; rat, in vivo, po, 30 mg/kg): 83%
inhibition of histopathologic bone resorption (adjuvant arthritis; rat, in vivo, po, 30 mg/kg): 81%
inhibition of lymphoid atrophy (adjuvant arthritis; rat, in vivo, po, 30 mg/kg): 39%
inhibition of splenic inflammation (adjuvant arthritis; rat, in vivo, po, 30 mg/kg): 89%
toxicity (based on body weight changes) (adjuvant arthritis; rat, in vivo, po, 30 mg/kg): toxic
analgesic activity ([3]; mouse, in vivo): significant analgesic activity
ameliorating tumor-induced osteoclasts and osteolysis [6]: strong positive trend
improving the various aspects of cancer-induced bone damage (histopathology) [6]: positive trend
immunosuppressive effect in animals treated with alloantigen [7]: slight immunosuppressive effect

arsenic trioxide (As2O3)
Relative thymus weights ([2]; arsenic trioxide study, 10 mg/kg): reduced below arthritic controls
Relative liver weights, increase above arthritic controls ([2]; arsenic trioxide study, IP 1 mg/kg): 6%
Relative liver weights, increase above arthritic controls [2, 9]: 10%
Relative spleen weights, reduction as compared to disease control rats [2, 9]: 21%
inhibition of decrease in ankle diameter ([2]; arsenic trioxide study, IP 10 mg/kg, days 10-17): Significant inhibition
Inhibition of ankle diameter AUC [2, 10]: 80%
Inhibition of final paw weight [2, 10]: 71%
inhibition of body weight loss [2, 10]: 55%
Hind paw licking time (Seconds) (Mean ± SEM) ([3]; 1 mg/kg, 0-5 minutes after formalin): 74.6 s
Hind paw licking time (Seconds) (Mean ± SEM) ([3]; 1 mg/kg, 5-10 minutes after formalin): 2.6* Seconds
Hind paw licking time (Seconds) (Mean ± SEM) ([3]; 1 mg/kg, 10-15 minutes after formalin): 15.6* Seconds
Hind paw licking time (Seconds) (Mean ± SEM) ([3]; 1 mg/kg, 15-20 minutes after formalin): 40.0 s
Hind paw licking time (Seconds) (Mean ± SEM) ([3]; 1 mg/kg, 20-25 minutes after formalin): 57.1 s
Hind paw licking time (Seconds) (Mean ± SEM) ([3]; 1 mg/kg, 25-30 minutes after formalin): 53.5 s
Hind paw licking time (Seconds) (Mean ± SEM) ([3]; 1 mg/kg, 30-35 minutes after formalin): 30.0 s
Hind paw licking time (Seconds) (Mean ± SEM) ([3]; 10 mg/kg, 0-5 minutes after formalin): 9.0* Seconds
Hind paw licking time (Seconds) (Mean ± SEM) ([3]; 10 mg/kg, 5-10 minutes after formalin): 0.3* Seconds
Hind paw licking time (Seconds) (Mean ± SEM) ([3]; 10 mg/kg, 10-15 minutes after formalin): 0.0* Seconds
Hind paw licking time (Seconds) (Mean ± SEM) ([3]; 10 mg/kg, 15-20 minutes after formalin): 0.0* Seconds
Hind paw licking time (Seconds) (Mean ± SEM) ([3]; 10 mg/kg, 20-25 minutes after formalin): 0.0* Seconds
Hind paw licking time (Seconds) (Mean ± SEM) ([3]; 10 mg/kg, 25-30 minutes after formalin): 0.0* Seconds
Hind paw licking time (Seconds) (Mean ± SEM) ([3]; 10 mg/kg, 30-35 minutes after formalin): 0.0 s
inhibition of the licking response to formalin challenge ([3]; intraperitoneal, 10 mg/kg, intervals 0-5, 5-10, 10-15, 15-20, 20-25 and 25-30 minutes): significant inhibition
response (inhibition of licking) to formalin challenge ([3]; intraperitoneal, lower dose 1 mg/kg): limited to the intervals of 5-10 and 10-15 minutes after challenge
